According to the NIST ThermoML archive (doi:10.1016/j.jct.2007.04.005):

Assay: xn = mol fraction of the nth substance listed
Details: 328.15 K, Liquid

CCCCCCCCC [nonane] + C1CCCCC1
Details | mass density [kg/m3]
100 kPa, x2 = 0 | 690.5
100 kPa, x2 = 0.09303 | 693.4
100 kPa, x2 = 0.2009 | 697
100 kPa, x2 = 0.3051 | 700.9
100 kPa, x2 = 0.417 | 705.3
100 kPa, x2 = 0.512 | 709.7
100 kPa, x2 = 0.5996 | 714.5
100 kPa, x2 = 0.7052 | 720.8
100 kPa, x2 = 0.7993 | 727.5
100 kPa, x2 = 0.9039 | 735.7
101 kPa, x2 = 0 | 690.88
101 kPa, x2 = 0.1022 | 693.98
101 kPa, x2 = 0.1548 | 695.7
101 kPa, x2 = 0.2009 | 697.27
101 kPa, x2 = 0.2591 | 699.37
101 kPa, x2 = 0.3306 | 702.13
101 kPa, x2 = 0.4003 | 705.03
101 kPa, x2 = 0.4596 | 707.71
101 kPa, x2 = 0.5321 | 711.23
101 kPa, x2 = 0.612 | 715.53
101 kPa, x2 = 0.6649 | 718.62
101 kPa, x2 = 0.7224 | 722.28
101 kPa, x2 = 0.8047 | 728.07
101 kPa, x2 = 0.8686 | 733.12
101 kPa, x2 = 0.9405 | 739.53
2130 kPa, x2 = 0 | 691.4
2130 kPa, x2 = 0.09303 | 694.3
2130 kPa, x2 = 0.2009 | 697.9
2130 kPa, x2 = 0.3051 | 701.8
2130 kPa, x2 = 0.417 | 706.3
2130 kPa, x2 = 0.512 | 710.7
2130 kPa, x2 = 0.5996 | 715.6
2130 kPa, x2 = 0.7052 | 721.9
2130 kPa, x2 = 0.7993 | 728.6
2130 kPa, x2 = 0.9039 | 737
4150 kPa, x2 = 0 | 694.4
4150 kPa, x2 = 0.09303 | 697.3
4150 kPa, x2 = 0.2009 | 700.9
4150 kPa, x2 = 0.3051 | 704.8
4150 kPa, x2 = 0.417 | 709.3
4150 kPa, x2 = 0.512 | 713.7
4150 kPa, x2 = 0.5996 | 718.6
4150 kPa, x2 = 0.7052 | 724.9
4150 kPa, x2 = 0.7993 | 731.6
4150 kPa, x2 = 0.9039 | 739.9
6180 kPa, x2 = 0 | 696.3
6180 kPa, x2 = 0.09303 | 699.2
6180 kPa, x2 = 0.2009 | 702.8
6180 kPa, x2 = 0.3051 | 706.7
6180 kPa, x2 = 0.417 | 711.2
6180 kPa, x2 = 0.512 | 715.6
6180 kPa, x2 = 0.5996 | 720.5
6180 kPa, x2 = 0.7052 | 726.9
6180 kPa, x2 = 0.7993 | 733.5
6180 kPa, x2 = 0.9039 | 741.9
8210 kPa, x2 = 0 | 698.1
8210 kPa, x2 = 0.09303 | 701
8210 kPa, x2 = 0.2009 | 704.7
8210 kPa, x2 = 0.3051 | 708.6
8210 kPa, x2 = 0.417 | 713.1
8210 kPa, x2 = 0.512 | 717.5
8210 kPa, x2 = 0.5996 | 722.4
8210 kPa, x2 = 0.7052 | 728.8
8210 kPa, x2 = 0.7993 | 735.5
8210 kPa, x2 = 0.9039 | 743.9
10230 kPa, x2 = 0 | 699.9
10230 kPa, x2 = 0.09303 | 702.8
10230 kPa, x2 = 0.2009 | 706.5
10230 kPa, x2 = 0.3051 | 710.4
10230 kPa, x2 = 0.417 | 714.9
10230 kPa, x2 = 0.512 | 719.3
10230 kPa, x2 = 0.5996 | 724.3
10230 kPa, x2 = 0.7052 | 730.7
10230 kPa, x2 = 0.7993 | 737.3
10230 kPa, x2 = 0.9039 | 745.8
11250 kPa, x2 = 0 | 700.8
11250 kPa, x2 = 0.09303 | 703.7
11250 kPa, x2 = 0.2009 | 707.4
11250 kPa, x2 = 0.3051 | 711.3
11250 kPa, x2 = 0.417 | 715.8
11250 kPa, x2 = 0.512 | 720.2
11250 kPa, x2 = 0.5996 | 725.2
11250 kPa, x2 = 0.7052 | 731.6
11250 kPa, x2 = 0.7993 | 738.3
11250 kPa, x2 = 0.9039 | 746.7
12260 kPa, x2 = 0 | 701.7
12260 kPa, x2 = 0.09303 | 704.6
12260 kPa, x2 = 0.2009 | 708.3
12260 kPa, x2 = 0.3051 | 712.2
12260 kPa, x2 = 0.417 | 716.7
12260 kPa, x2 = 0.512 | 721.1
12260 kPa, x2 = 0.5996 | 726.1
12260 kPa, x2 = 0.7052 | 732.5
12260 kPa, x2 = 0.7993 | 739.2
12260 kPa, x2 = 0.9039 | 747.7
14290 kPa, x2 = 0 | 703.4
14290 kPa, x2 = 0.09303 | 706.3
14290 kPa, x2 = 0.2009 | 710.1
14290 kPa, x2 = 0.3051 | 714
14290 kPa, x2 = 0.417 | 718.5
14290 kPa, x2 = 0.512 | 722.9
14290 kPa, x2 = 0.5996 | 727.9
14290 kPa, x2 = 0.7052 | 734.4
14290 kPa, x2 = 0.7993 | 741
14290 kPa, x2 = 0.9039 | 749.5
16310 kPa, x2 = 0 | 705.1
16310 kPa, x2 = 0.09303 | 708
16310 kPa, x2 = 0.2009 | 711.8
16310 kPa, x2 = 0.3051 | 715.7
16310 kPa, x2 = 0.417 | 720.2
16310 kPa, x2 = 0.512 | 724.6
16310 kPa, x2 = 0.5996 | 729.7
16310 kPa, x2 = 0.7052 | 736.1
16310 kPa, x2 = 0.7993 | 742.8
16310 kPa, x2 = 0.9039 | 751.3
18340 kPa, x2 = 0 | 706.8
18340 kPa, x2 = 0.09303 | 709.6
18340 kPa, x2 = 0.2009 | 713.4
18340 kPa, x2 = 0.3051 | 717.3
18340 kPa, x2 = 0.417 | 721.9
18340 kPa, x2 = 0.512 | 726.3
18340 kPa, x2 = 0.5996 | 731.4
